The results in this text go back to patent US20120122931A1, “INDOLE DERIVATIVE OR PHARMACEUTICALLY ACCEPTABLE SALT THEREOF” (KISSEI PHARMACEUTICAL CO., LTD., priority 2009, published 2012).

The assay deals with T1, rat EP1 receptor (Rattus norvegicus, UniProt P70597).
T1 construct: expressed in transfected cells; host or cells: COS-1 cells, transient transfection with Lipofectamine 2000
T1 sequence (P70597 1-405): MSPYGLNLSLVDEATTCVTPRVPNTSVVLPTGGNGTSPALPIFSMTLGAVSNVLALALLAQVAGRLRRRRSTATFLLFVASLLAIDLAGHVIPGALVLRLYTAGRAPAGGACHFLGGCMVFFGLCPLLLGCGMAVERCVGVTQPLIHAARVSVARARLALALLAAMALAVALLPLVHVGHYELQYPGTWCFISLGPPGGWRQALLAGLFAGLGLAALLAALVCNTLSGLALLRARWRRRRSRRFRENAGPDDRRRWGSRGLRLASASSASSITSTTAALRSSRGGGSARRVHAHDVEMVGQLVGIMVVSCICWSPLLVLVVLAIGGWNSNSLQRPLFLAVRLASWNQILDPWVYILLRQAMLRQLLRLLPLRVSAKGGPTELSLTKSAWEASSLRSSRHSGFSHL
In words: Test for confirmation of EP1 receptor antagonism: inhibition of prostaglandin E2-induced increase in intracellular calcium concentration (Method A or Method B). Type of assay: cell-based. As to conditions: Method B (Calcium kit II Fluo 4, FDSS 7000); rat EP1 receptor-expressing cells; prostaglandin E2 10 nM. The method, then: (1) Preparation of Rat EP1 Expression vector
Using Rat Kidney BD Marathon-Ready cDNA (Nippon Becton Dickinson Company, Ltd.) as a template, a forward primer shown in SEQ ID NO. 1, and a reverse primer shown in SEQ ID NO. 2, a first run of PCR was carried out using KOD-Plus-Ver 2.0 (Toyobo Co., Ltd.). Further, using this amplification product as a template, a forward primer shown in SEQ ID NO. 3, and a reverse primer shown in SEQ ID NO. 4, a second run of PCR was carried out in the same manner. The amplification product obtained by the second run of PCR was incorporated into a vector (pcDNA3.1 D/V5-His-TOPO (registered trademark), Invitrogen Japan K. K.). By a conventional method, the vector containing this amplification product was introduced to E. coli (One Shot TOP10 Competent Cells, Invitrogen Corporation) to transform. This transformed E. coli was cultured in an LB agar medium for one day. After the culture, colonies were selected and cultured in an LB liquid medium containing 50 μg/mL of ampicillin. After the culture, the vector was purified using a QIAprep Spin Miniprep Kit (Qiagen K. K.). The base sequence of the insertion site of this vector (SEQ ID NO. 5) was compared with the rat EP1 base sequence (Ptger1) registered as an accession number NM_013100 in well-known database (NCBI), and as a result, they all matched except for a single base. Further, the amino acid sequence translated by the base sequence completely matched the amino acid sequence of the rat EP1 receptor registered as an NCBI accession number NP_037232. Therefore, it was confirmed that the cloned gene sequence was a base sequence of the rat EP1 receptor and the obtained amino acid sequence was that of the rat EP1 receptor. The pcDNA3.1 D/V5-His-TOPO (registered trademark) to which the nucleic acid shown in SEQ ID NO. 5 had been inserted was taken as a rat EP1-expressing vector.
(2) Preparation of Rat EP1 Receptor-Expressing Cells
COS-1 cells (Dainippon Sumitomo Pharma Co., Ltd.) were cultured until it reached confluence in an incubator at 37° C. under a 5% CO2 gas condition, using a D-MEM liquid medium (high glucose and L-glutamine contained, Invitrogen Corporation) to which a penicillin-streptomycin solution (Invitrogen Corporation, final concentration: 100 U/mL as benzylpenicillin; 100 μg/mL as streptomycin) as an antibiotic, MEM nonessential amino acids (Invitrogen Corporation, final Concentration: 0.1 mM), and fetal calf serum (Sanko Junyaku Co., Ltd., final concentration: 10%) were added.
(2-2) COS-1 Cell Subculture
The cells that had reached confluence were stripped with 0.05% trypsin/0.53 mM EDTA 4Na (Invitrogen Japan K. K.) and resuspended in the above liquid medium. The resuspended cells were diluted and cultured in the above liquid medium at a spread ratio from 1:4 to 1:8.
(2-3) Preparation of Cells for Introduction of Rat EP1-Expressing Vector
The cells that had reached confluence were stripped with 0.05% trypsin/0.53 mM EDTA.4Na, and resuspended in a D-MEM liquid medium (high glucose and L-glutamine contained, Invitrogen Corporation) to which an MEM nonessential amino acid (final concentration: 0.1 mM) and fetal calf serum (final concentration: 10%) were added. In each well of a Poly D-lysine-coated 96-well microplate (BD BioCoat (registered trademark), Nippon Becton Dickinson Company, Ltd.), this resuspended cell suspension culture was prepared to be 5×10^4 cells/well in 100 μL of the liquid medium, and seeded thereon. After seeding, the cells were cultured in an incubator at 37° C. under a 5% CO2 gas condition. At a point when the cells for introduction of a rat EP1-expressing vector were adhered (about 2 hours after seeding), introduction of the rat EP1-expressing vector was carried out in the following order.
(2-4) Introduction of Rat EP1-Expressing Vector
For introduction of the rat EP1-expressing vector, Lipofectamine 2000 (Invitrogen Japan K. K.) was used. […]
For the compound `COc1cc2[nH]c(-c3ccsc3)c(Cc3cccc(C(=O)O)n3)c2cc1F` [Example 16-28, 6-(5-fluoro-6-methoxy-2-thiophen-3-yl-1H-indol-3-ylmethyl)pyridine-2-carboxylic acid], the IC50 amounted to 0.03 µM.
With `COc1cc2[nH]c(-c3ccsc3)c(Cc3cccc(C(=O)O)n3)c2cc1Cl` [Example 16-29, 6-(5-chloro-6-methoxy-2-thiophen-3-yl-1H-indol-3-ylmethyl)pyridine-2-carboxylic acid], the IC50 was 0.027 µM.
As to `O=C(O)c1cccc(Cc2c(-c3ccccc3)[nH]c3cc(Br)ccc23)n1` [Example 16-38], the half-inhibitory concentration (IC50) came to 0.036 µM.
With `Cc1cc2[nH]c(-c3ccccc3)c(Cc3cccc(C(=O)O)n3)c2cc1C` [Example 16-44, 6-(5,6-dimethyl-2-phenyl-1H-indol-3-ylmethyl)pyridine-2-carboxylic acid], the IC50 was found to be 0.011 µM.
In the case of `O=C(O)c1cccc(Cc2c(-c3ccccc3)[nH]c3cc(C(F)(F)F)c(F)cc23)n1` [Example 16-45], the IC50 turned out to be 0.026 µM.
Turning to `Cc1ccc2c(Cc3cccc(C(=O)O)n3)c(-c3ccc(F)cc3)[nH]c2c1` [Example 16-48, 6-[2-(4-fluorophenyl)-6-methyl-1H-indol-3-ylmethyl]pyridine-2-carboxylic acid], the half-inhibitory concentration (IC50) came to 0.027 µM.
In the case of `Cc1cc2[nH]c(-c3ccsc3)c(Cc3cccc(C(=O)O)n3)c2cc1C` [Example 16-51, 6-(5,6-dimethyl-2-thiophen-3-yl-1H-indol-3-ylmethyl)pyridine-2-carboxylic acid], the IC50 stood at 0.014 µM.
Consider `O=C(O)c1cccc(Cc2c(-c3ccsc3)[nH]c3cc(Cl)c(F)cc23)n1` [Example 16-52, 6-(6-chloro-5-fluoro-2-thiophen-3-yl-1H-indol-3-ylmethyl)pyridine-2-carboxylic acid], for which the IC50 is 0.043 µM.
Take `Cc1cc2[nH]c(-c3ccccc3)c(Cc3cccc(C(=O)O)n3)c2cc1F` [Example 16-53, 6-(5-fluoro-6-methyl-2-phenyl-1H-indol-3-ylmethyl)pyridine-2-carboxylic acid]: the half-maximal inhibitory concentration (IC50) amounted to 0.031 µM.
Regarding `Cc1cc2[nH]c(-c3ccc(F)cc3)c(Cc3cccc(C(=O)O)n3)c2cc1F` [Example 16-54, 6-[5-fluoro-2-(4-fluorophenyl)-6-methyl-1H-indol-3-ylmethyl]pyridine-2-carboxylic acid], the IC50 was 0.047 µM.
Regarding `Cc1cc2[nH]c(-c3ccsc3)c(Cc3cccc(C(=O)O)n3)c2cc1F` [Example 16-56, 6-(5-fluoro-6-methyl-2-thiophen-3-yl-1H-indol-3-ylmethyl)pyridine-2-carboxylic acid], the IC50 turned out to be 0.039 µM.
On to `Cc1cc2[nH]c(-c3cccnc3)c(Cc3cccc(C(=O)O)n3)c2cc1C` [Example 16-58, 6-(5,6-dimethyl-2-pyridin-3-yl-1H-indol-3-ylmethyl)pyridine-2-carboxylic acid], for which the IC50 came out at 0.038 µM.
Consider `Cc1cc2c(Cc3cccc(C(=O)O)n3)c(-c3ccccc3)[nH]c2cc1Cl` [Example 16-59, 6-(6-chloro-5-methyl-2-phenyl-1H-indol-3-ylmethyl)pyridine-2-carboxylic acid], for which the half-inhibitory concentration (IC50) is 0.019 µM.
As for `CCOc1ccc2c(Cc3cccc(C(=O)O)n3)c(-c3ccc(F)cc3)[nH]c2c1` [Example 16-60, 6-[6-ethoxy-2-(4-fluorophenyl)-1H-indol-3-ylmethyl]pyridine-2-carboxylic acid], the figure is 0.032 µM; as for `CCOc1ccc2c(Cc3cccc(C(=O)O)n3)c(-c3ccsc3)[nH]c2c1` [Example 16-61, 6-(6-ethoxy-2-thiophen-3-yl-1H-indol-3-ylmethyl)pyridine-2-carboxylic acid], 0.043 µM.
Turning to `O=C(O)c1cccc(Cc2c(-c3ccc(F)cc3)[nH]c3cc(C4CC4)ccc23)n1` [Example 16-62, 6-[6-cyclopropyl-2-(4-fluorophenyl)-1H-indol-3-ylmethyl]pyridine-2-carboxylic acid], the half-maximal inhibitory concentration (IC50) was found to be 0.027 µM.
In the case of `O=C(O)c1cccc(Cc2c(-c3ccsc3)[nH]c3cc(C4CC4)ccc23)n1` [Example 16-65, 6-(6-cyclopropyl-2-thiophen-3-yl-1H-indol-3-ylmethyl)pyridine-2-carboxylic acid], the IC50 is 0.014 µM.
As to `COc1cc2[nH]c(-c3cccnc3)c(Cc3cccc(C(=O)O)n3)c2cc1C` [Example 16-66, 6-(6-methoxy-5-methyl-2-pyridin-3-yl-1H-indol-3-ylmethyl)pyridine-2-carboxylic acid], the IC50 is 0.03 µM.
Take `O=C(O)c1cccc(Cc2c(-c3cccnc3)[nH]c3cc(C4CC4)ccc23)n1` [Example 16-67, 6-(6-cyclopropyl-2-pyridine-3-yl-1H-indol-3-ylmethyl)pyridine-2-carboxylic acid]: the IC50 came to 0.022 µM.
In the case of `O=C(O)c1cccc(Cc2c(-c3ccccc3)[nH]c3cc(C4CC4)c(F)cc23)n1` [Example 16-68, 6-(6-cyclopropyl-5-fluoro-2-phenyl-1H-indol-3-ylmethyl)pyridine-2-carboxylic acid], the IC50 was determined as 0.034 µM.
Consider `O=C(O)c1cccc(Cc2c(-c3ccccc3)[nH]c3cc(OC(F)F)ccc23)n1` [Example 16-73], for which the concentration for half-maximal inhibition (IC50) was determined as 0.023 µM.
For the compound `O=C(O)c1cccc(Cc2c(-c3ccc(F)cc3)[nH]c3cc(C4CC4)c(F)cc23)n1` [Example 16-74, 6-[6-cyclopropyl-5-fluoro-2-(4-fluorophenyl)-1H-indol-3-ylmethyl]pyridine-2-carboxylic acid], the IC50 is 0.047 µM.
For `O=C(O)c1cccc(Cc2c(-c3ccsc3)[nH]c3cc(C4CC4)c(F)cc23)n1` [Example 16-75, 6-(6-cyclopropyl-5-fluoro-2-thiophen-3-yl-1H-indol-3-ylmethyl)pyridine-2-carboxylic acid], the IC50 amounted to 0.016 µM.
Take `O=C(O)c1cccc(Cc2c(-c3cccnc3)[nH]c3cc(C4CC4)c(F)cc23)n1` [Example 16-76, 6-(6-cyclopropyl-5-fluoro-2-pyridine-3-yl-1H-indol-3-ylmethyl)pyridine-2-carboxylic acid]: the IC50 turned out to be 0.02 µM.
Turning to `COc1cc2c(Cc3cccc(C(=O)O)n3)c(-c3ccccc3)[nH]c2cc1C` [Example 16-78, 6-(5-methoxy-6-methyl-2-phenyl-1H-indol-3-ylmethyl)pyridine-2-carboxylic acid], the concentration for half-maximal inhibition (IC50) worked out at 0.024 µM.
As for `CCOc1cc2[nH]c(-c3ccsc3)c(Cc3cccc(C(=O)O)n3)c2cc1F` [Example 16-79, 6-(6-ethoxy-5-fluoro-2-thiophen-3-yl-1H-indol-3-ylmethyl)pyridine-2-carboxylic acid], the concentration for half-maximal inhibition (IC50) amounted to 0.022 µM.
Regarding `CCOc1cc2[nH]c(-c3ccccc3)c(Cc3cccc(C(=O)O)n3)c2cc1C` [Example 16-84, 6-(6-ethoxy-5-methyl-2-phenyl-1H-indol-3-ylmethyl)pyridine-2-carboxylic acid], the IC50 turned out to be 0.017 µM.
